Assay results from PubChem BioAssay (NCI).
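48-hour exposure; five concentrations; linearly interpolated endpoints. GI50: concentration for 50% inhibition of growth. TGI is the concentration that stops growth completely.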

Assays:
Test in all cases: growth of human tumour cells (NCI), 48 h
CAKI-1 renal = test system: CAKI-1 renal
SK-OV-3 ovarian = test system: SK-OV-3 ovarian
UACC-62 melanoma = test system: UACC-62 melanoma
BT-549 breast = test system: BT-549 breast
ACHN renal = test system: ACHN renal
786-0 renal = test system: 786-0 renal
MDA-MB-231 breast = test system: MDA-MB-231 breast
HS 578T breast = test system: HS 578T breast
SF-295 CNS = test system: SF-295 CNS
CCRF-CEM leukemia = test system: CCRF-CEM leukemia
HCT-15 colon = test system: HCT-15 colon
SNB-75 CNS = test system: SNB-75 CNS
OVCAR-8 ovarian = test system: OVCAR-8 ovarian
SR leukemia = test system: SR leukemia
SNB-19 CNS = test system: SNB-19 CNS
NCI-H460 lung = test system: NCI-H460 lung
NCI/ADR-RES ovarian = test system: NCI/ADR-RES ovarian
SW-620 colon = test system: SW-620 colon
UACC-257 melanoma = test system: UACC-257 melanoma
HOP-62 NSCLC = test system: HOP-62 NSCLC
NCI-H522 lung = test system: NCI-H522 lung
NCI-H23 lung = test system: NCI-H23 lung
SN12C renal = test system: SN12C renal
U251 CNS = test system: U251 CNS
SF-268 CNS = test system: SF-268 CNS
A549 NSCLC = test system: A549 NSCLC
TK-10 renal = test system: TK-10 renal
M14 melanoma = test system: M14 melanoma
EKVX NSCLC = test system: EKVX NSCLC
RPMI-8226 leukemia = test system: RPMI-8226 leukemia
K-562 leukemia = test system: K-562 leukemia
HOP-92 NSCLC = test system: HOP-92 NSCLC
T-47D breast = test system: T-47D breast
SK-MEL-2 melanoma = test system: SK-MEL-2 melanoma
RXF 393 renal = test system: RXF 393 renal
SK-MEL-28 melanoma = test system: SK-MEL-28 melanoma
SF-539 CNS = test system: SF-539 CNS
OVCAR-5 ovarian = test system: OVCAR-5 ovarian
DU-145 prostate = test system: DU-145 prostate
IGROV1 ovarian = test system: IGROV1 ovarian
MALME-3M melanoma = test system: MALME-3M melanoma
KM12 colon = test system: KM12 colon

## N#Cc1cnc2ccc(-c3cnc4[nH]ncc4c3)cc2c1N1CCc2cc(F)c(Cl)cc21
CAKI-1 renal
  GI50: 250 nM
  TGI: > 100000 nM
SK-OV-3 ovarian
  GI50: 214 nM
  TGI: 591 nM
UACC-62 melanoma
  GI50: 250 nM
BT-549 breast
  GI50: 232 nM
  TGI: 716 nM
ACHN renal
  GI50: 360 nM
  TGI: > 100000 nM
786-0 renal
  GI50: 370 nM
  TGI: 5120 nM
MDA-MB-231 breast
  GI50: 302 nM
  TGI: 6700 nM
HS 578T breast
  GI50: 151 nM
  TGI: 406 nM
SF-295 CNS
  GI50: 206 nM
  TGI: 599 nM
CCRF-CEM leukemia
  GI50: 355 nM
  TGI: > 100000 nM
HCT-15 colon
  GI50: 293 nM
  TGI: > 100000 nM
SNB-75 CNS
  GI50: 145 nM
  TGI: 428 nM
OVCAR-8 ovarian
  GI50: 348 nM
  TGI: > 100000 nM
SR leukemia
  GI50: 262 nM
  TGI: > 100000 nM
SNB-19 CNS
  GI50: 399 nM
  TGI: > 35400 nM
NCI-H460 lung
  GI50: 327 nM
  TGI: > 100000 nM
NCI/ADR-RES ovarian
  GI50: 334 nM
  TGI: > 100000 nM
SW-620 colon
  GI50: 389 nM
  TGI: > 100000 nM
UACC-257 melanoma
  GI50: 312 nM
  TGI: > 100000 nM
HOP-62 NSCLC
  GI50: 255 nM
  TGI: 1100 nM
NCI-H522 lung
  GI50: 254 nM
  TGI: 725 nM
NCI-H23 lung
  GI50: 406 nM
  TGI: > 100000 nM
SN12C renal
  GI50: 303 nM
  TGI: > 100000 nM
U251 CNS
  GI50: 373 nM
  TGI: > 100000 nM
SF-268 CNS
  GI50: 296 nM
A549 NSCLC
  GI50: 292 nM
  TGI: > 100000 nM
TK-10 renal
  GI50: 275 nM
  TGI: > 36200 nM
M14 melanoma
  GI50: 322 nM
  TGI: > 100000 nM
EKVX NSCLC
  GI50: 309 nM
  TGI: > 100000 nM
RPMI-8226 leukemia
  GI50: 402 nM
  TGI: > 100000 nM
K-562 leukemia
  GI50: 360 nM
  TGI: > 100000 nM
HOP-92 NSCLC
  GI50: 204 nM
  TGI: 673 nM
T-47D breast
  GI50: 214 nM
  TGI: > 100000 nM
SK-MEL-2 melanoma
  GI50: 222 nM
  TGI: 518 nM
RXF 393 renal
  GI50: 171 nM
  TGI: 599 nM
SK-MEL-28 melanoma
  GI50: 330 nM
  TGI: > 100000 nM
SF-539 CNS
  GI50: 230 nM
  TGI: 564 nM
OVCAR-5 ovarian
  GI50: 371 nM
  TGI: > 100000 nM
DU-145 prostate
  GI50: 372 nM
  TGI: > 100000 nM
IGROV1 ovarian
  GI50: 177 nM
  TGI: 544 nM
MALME-3M melanoma
  GI50: 232 nM
  TGI: 648 nM
KM12 colon
  GI50: 400 nM
  TGI: > 100000 nM
